Results from patent US6214859A, “Ethylamine derivatives” (Fujimoto Brothers Co., Ltd., priority 1997, dated 2001).

Experiments:
[1] = tested on: rats reduced learning ability by tetrabenazine; assay: Conditioned avoidance task in the shuttle box (tetrabenazine-treated rats); format: in vivo, rat; conditions: tetrabenazine 1 mg/kg s.c., significance and direction
Procedure: The method described in Life Sci., 58, 817-827 (1996) was used. The effects on conditioned avoidance reflex (CARs) was analyzed in the shuttle box using male and female rats (weighing 200-220 g) whose leaning abilities were reduced by treatment of tetrabenazine. The instrument was constructed, according to the device described in Psychopharmacologia 10, 1-5 (1966) by the Research Institute for Electrical Industry (Budapest, Hungary). The male and female rats (weighing 200-220 g) were trained to cross the berrier under the influence of a conditioned stimulus (CS) (light flash and buzzer sounds). […] And the performance which was not related to this condition was noted as an intersignal reaction (IR). The rats were trained with 100 trials per day for 5 days. One trial consisted of 15 sec intertrial interval. The saline solution of tetrabenazine was administered at a dose of 1 mg/kg subcutaneously before one hour prior to the test and then the solution of the compounds of this invention were administered at the doses of 1, 2, 2.5 and 5 mg/kg subcutaneously with the simultaneous administration of tetrabenazine. The nmbers of CARs, EFs and IRs were automatically counted and evaluated by multi-way analysis of variance (ANOVA).

[2] = Toxicity screening using primary cultured hepatocyte (LDH release); format: cell-based, rat; conditions: rat, primary hepatocytes, 24 hr, control 0.5% saline or 0.5% DMSO, read-out: Percent control of LDH release
Procedure: (§1) The hepatocytes was prepared from rat liver by collagenase perfusion method and suspension containing 5×10^5 cells/ml were prepared. After cultivation for 24 hr, the suspension was exchanged to the William's Medium E (GIBCO BRL) containing 10 or 100 μM of the compounds of this invention. After cultivation for 24 hr, the activity of lactate dehydrogenase (LDH) released in the medium was measured.

[3] = tested on: primary cultured hepatocyte; assay: as above; format: cell-based, rat; conditions: 10 μM
Procedure: as §1

[4] = tested on: dopamine release, striatum; assay: Release of biogenic amines from brain tissue: dopamine, striatum; format: in vivo, Wistar rats
Procedure: (§2) The method described in Life Sci., 56, 611-620 (1995) was used. After Wistar rats were decapitated, appropriate brain samples, which were striatun, substantia nigra, tuberculum olfactorium, locus coeruleus and raphe, were removed quickly and soaked in oxygenated (95% O2 and 5% CO2) Krebs solution at 37° C. The composition of Krebs solution was as follows in […]: NaCl 111, KCl 4.7, CaCl2 2.5, MgSO4 1.64, NaHCO3 25, KH2 PO4 1.2, glucose 11, 50 mg/l ascorbic add and 20 mg/l EDTA-2 Na. The preparations, soaked in one organ bath, were as follows: 1) four pieces of striatum (each halved), 2) four pieces of substantia nigra, 3) four pieces of tuberculum olfactorium; 4) eight pieces of locus coeruleus; 5) eight pieces of raphe. After incubation of the appropriate tissue for 20 min, the Krebs solution was replaced, the tissue soaked for 20 min in Krebs solution dissolving the compounds of this invention and the amount of biogenic amine released during this period of time was estimate. The compounds of this invention and PPAP, control compound, were dissolved in saline and were administered subcutaneously before 30 min to removing brain sample. For measuring noradrenaline and dopamine, samples were purified on 60 mg alumina containing micro columns (BDH Chemicals Ltd.) according to the method described in J. Pharmacol. Exp. Ther., 138, 360-372 (1962) For measuring serotonin, samples were purified on 15 mg Sephadex G-10 micro columns (Pharmacia). Dopamine, noradrenaline and serotonin were determined by high performance liquid chromatography (Waters 746 data module) with electrochemical detection (Waters 460 electrochemical detector). Waters Resolve 5μ Spherical C18 3.9×150 mm column was used as separating column and triethylamine-phosphate buffer (pH 5.2), containing 200 mg/l octane sulfonate sodium and 18 mg/l EDTA-2 Na with 6% acetonitrile, was used as mobile phase. The release amount of appropriate amine was noted as nmol/g tissue released for 20 min. deference of means tested by Student's t-test and significant level was set at P<.05.

[5] = tested on: dopamine release, tuberculum olfactorium; assay: Release of biogenic amines from brain tissue: dopamine, tuberculum olfactorium; format: in vivo, Wistar rats
Procedure: as §2

[6] = tested on: serotonin release, raphe; assay: Release of biogenic amines from brain tissue: serotonin, raphe; format: in vivo, Wistar rats
Procedure: as §2

[7] = tested on: noradrenaline release, locus coeruleus; assay: Release of biogenic amines from brain tissue: noradrenaline, locus coeruleus; format: in vivo, Wistar rats
Procedure: as §2

[8] = tested on: dopamine release, substantia nigra; assay: Release of biogenic amines from brain tissue: dopamine, substantia nigra; format: in vivo, Wistar rats
Procedure: as §2

[9] = biological target: α1 receptor; assay: Affinity to α1 receptor; set-up: species or system rat; conditions: read-out: Affinity to α1 receptor (MIC50; mole concentration for 50% inhibition of binding); 0.25 nM ^3H-prazocin; 90 min
Procedure: The solution of receptor was prepared as follows. As soon as rats were decapitated, brain was removed and its weight was measured. Its brain was homogenized in ten times volumes of ice-cold 0.35 M sucrose (pH 7.4) by glass homogenizer with teflon pestle which was revolted by motors. Thereafter, the homogenate was centrifuged at 4° C. at 900×g for 10 min and the supernatant was, furthermore, recentrifuged at 4° C. at 22,000×g for 20 min. The precipitate was suspended by addition of 5 mM phosphate buffer solution (pH 7.4). After the suspension was incubated at 37° C. for 30 min, the suspension was recentrifuged at 4° C. at 22,000×g for 20 min. The precipitate was resuspended by addition of 10 ml of 5 mM phosphate buffer solution (pH 8.0). The precipitate was used as the solution of receptor.
^3 H-prazocin was used as a ligand. 0.25 nM ^3 H-prazocin in 5 mM phosphate buffer (pH 8.0), the compound of this invention and the solution of receptor were added in tube and the mixture were incubated at 25° C. for 90 min. In addition, the […] binding was shown by binding value of ^3 H-prazocin under the coexistence with 0.1 μM prazocin. The binding reaction was carried out as follows. After ^3 H-prazocin (binding type: B) bound to receptor using glassfiberfilter (pore size: 0.5 μm, Whatman GF/C.) and free type of prazocin (free type: F) were separated with B/F separator (Brandel, USA), only the binding type of ^3 H-prazocin was collected. The binding type of ^3 H-prazocin absorbed to glass-fiber filter was washed with ice-cold saline solution and was remove to vial. After 10 ml of scintillation cocktail was added in it, the radioactivity was determined. From the binding inhibition rate of α1 receptor and ligand, affinity of the compounds of this invention to α1 receptor was measured.
If affinity of certain compound to a receptor is high, the binding ligand and receptor is inhibited.

[10] = biological target: α2 receptor; assay: Affinity to α2 receptor; set-up: species or system rat; conditions: read-out: Affinity to α2 receptor (MIC50; mole concentration for 50% inhibition of binding); 0.7 nM ^3H-rauwolscine
[11] = biological target: T1, 5-HT2 receptor (Rattus norvegicus, UniProt P14842); assay: Affinity to 5-HT2 receptor; format: binding
T1 construct: The precipitate was used as the solution of receptor; from tissue; host or cells: rat brain (whole) crude membranes
T1 sequence (P14842 whole entry): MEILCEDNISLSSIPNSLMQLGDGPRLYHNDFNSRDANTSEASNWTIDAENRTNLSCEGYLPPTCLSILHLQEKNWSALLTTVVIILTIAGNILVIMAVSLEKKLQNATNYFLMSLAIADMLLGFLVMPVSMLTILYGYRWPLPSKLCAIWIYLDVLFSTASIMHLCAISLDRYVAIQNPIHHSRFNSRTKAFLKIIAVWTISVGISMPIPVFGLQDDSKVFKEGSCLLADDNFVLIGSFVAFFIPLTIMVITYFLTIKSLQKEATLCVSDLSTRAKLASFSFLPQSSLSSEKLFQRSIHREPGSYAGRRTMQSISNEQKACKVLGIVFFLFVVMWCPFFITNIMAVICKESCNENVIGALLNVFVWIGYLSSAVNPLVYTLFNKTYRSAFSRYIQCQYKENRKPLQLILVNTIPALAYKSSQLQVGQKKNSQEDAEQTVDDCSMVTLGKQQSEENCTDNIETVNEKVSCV

[12] = biological target: D2 receptor; assay: Affinity to D2 receptor; set-up: species or system rat; conditions: read-out: Affinity to D2 receptor (MIC50; mole concentration for 50% inhibition of binding); 2.0 nM spiperone
[13] = biological target: T2, D1 receptor (Rattus norvegicus, UniProt P18901); assay: Affinity to D1 receptor; format: binding
T2 construct: The precipitate was used as the solution of receptor; from tissue; host or cells: rat brain (whole) crude membranes
T2 sequence (P18901 whole entry): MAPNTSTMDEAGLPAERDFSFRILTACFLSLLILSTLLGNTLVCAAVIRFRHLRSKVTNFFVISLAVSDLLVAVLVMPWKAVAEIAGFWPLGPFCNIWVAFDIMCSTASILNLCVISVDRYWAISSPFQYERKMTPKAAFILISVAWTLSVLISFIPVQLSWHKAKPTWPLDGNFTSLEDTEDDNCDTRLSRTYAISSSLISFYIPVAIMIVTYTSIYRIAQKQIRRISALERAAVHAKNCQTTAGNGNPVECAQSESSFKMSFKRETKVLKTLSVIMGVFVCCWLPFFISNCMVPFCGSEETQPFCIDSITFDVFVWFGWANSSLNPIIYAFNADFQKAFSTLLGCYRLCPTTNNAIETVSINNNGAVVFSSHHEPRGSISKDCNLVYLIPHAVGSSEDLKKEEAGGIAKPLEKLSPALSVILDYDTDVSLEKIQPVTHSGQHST

[14] = biological target: 5-HT1 receptor; assay: Affinity to 5-HT1 receptor; set-up: species or system rat; conditions: read-out: Affinity to 5-HT1 receptor (MIC50; mole concentration for 50% inhibition of binding); 2 nM ^3H-5-HT

Row | Compound | Condition Avoidance Reflex (CARs) ([1]; 5 mg/kg s.c.) | Intersignal Reactions (IRs) ([1]; 5 mg/kg s.c.) | activity at 24 h, 10 µM [2] | activity at 24 h, 100 µM [2] | IC50 [9] | IC50 [10] | IC50 [11] | IC50 [12] | IC50 [13] | IC50 [14] | Condition Avoidance Reflex (CARs) ([1]; 1 mg/kg s.c.) | Release of dopamine, striatum ([4]; 0.01 mg/kg s.c.) | Release of dopamine, tuberculum olfactorium ([5]; 0.01 mg/kg s.c.) | Release of serotonin, raphe ([6]; 0.01 mg/kg s.c.) | Release of noradrenaline, locus coeruleus ([7]; 0.01 mg/kg s.c.) | Release of dopamine, substantia nigra ([8]; 0.01 mg/kg s.c.) | also measured
1 | CCCNC(CCC)Cc1ccccc1 (racemic) [PPAP, 1-phenyl-2-propylaminopentane, reference compound] | **** .Arrow-up bold. | **** .Arrow-up bold. | 127 ± 5.45% | 152 ± 11.1% |  |  |  |  |  |  |  |  |  |  |  |  | LDH release, significance in words [3]: released LDH significantly; Release of dopamine, striatum ([4]; 0.25 mg/kg s.c.): 3.5 ± 0.19 nmol/g tissue, for 20 min; Release of dopamine, striatum ([4]; 1.00 mg/kg s.c.): 3.6 ± 0.19 nmol/g tissue, for 20 min; Release of dopamine, tuberculum olfactorium ([5]; 0.25 mg/kg s.c.): 3.7 ± 0.10 nmol/g tissue, for 20 min; Release of dopamine, tuberculum olfactorium ([5]; 1.00 mg/kg s.c.): 3.2 ± 0.21 nmol/g tissue, for 20 min; Release of serotonin, raphe ([6]; 0.25 mg/kg s.c.): 0.416 ± 0.03 nmol/g tissue, for 20 min; Release of serotonin, raphe ([6]; 1.00 mg/kg s.c.): 0.741 ± 0.01 nmol/g tissue, for 20 min; Release of noradrenaline, locus coeruleus ([7]; 0.25 mg/kg s.c.): 3.8 ± 0.30 nmol/g tissue, for 20 min; Release of noradrenaline, locus coeruleus ([7]; 1.00 mg/kg s.c.): 4.6 ± 0.15 nmol/g tissue, for 20 min; Release of dopamine, substantia nigra ([8]; 0.25 mg/kg s.c.): 4.0 ± 0.24 nmol/g tissue, for 20 min; Release of dopamine, substantia nigra ([8]; 1.00 mg/kg s.c.): 4.0 ± 0.21 nmol/g tissue, for 20 min
2 | CC(C)C[C@H]1C(=O)N2CCC[C@H]2[C@]2(O)O[C@](NC(=O)[C@@H]3C=C4c5cccc6[nH]c(Br)c(c56)C[C@H]4N(C)C3)(C(C)C)C(=O)N12 [Bromocriptine, reference compound] |  |  |  |  | 0.01 µM | 0.1 µM | 1 µM | 0.01 µM | 10 µM | 0.1 µM |  |  |  |  |  |  | 
3 | CCCNC(CCC)Cc1cccc2[nH]ccc12.Cl (stereo not shown) [Compound No. 21, 1-(Indol-4-yl)-2-propylaminopentane Hydrochloride] |  |  | 110 ± 4.42% | 130 ± 9.68% | > 10 µM | 0.7 µM | > 10 µM | > 10 µM | > 10 µM | > 10 µM | **** .Arrow-up bold. | 5.4 ± 0.17 nmol/g tissue, for 20 min | 7.4 ± 0.15 nmol/g tissue, for 20 min | 0.354 ± 0.00 nmol/g tissue, for 20 min | 4.6 ± 0.40 nmol/g tissue, for 20 min | 10.0 ± 0.30 nmol/g tissue, for 20 min | Condition Avoidance Reflex (CARs) ([1]; 0.5 mg/kg s.c.): ** .Arrow-up bold.
4 | CCCNC(CCC)Cc1cc2ccccc2o1.Cl (stereo not shown) [Compound No. 25, 1-(Benzofuran-2-yl)-2-propylaminopentane Hydrochloride] | **** .Arrow-up bold. | * .Arrow-up bold. | 90.3 ± 2.85% | 112 ± 37% | > 10 µM | 1 µM | 20 µM | > 10 µM | > 10 µM | > 10 µM | **** .Arrow-up bold. | 5.3 ± 0.14 nmol/g tissue, for 20 min | 6.5 ± 0.20 nmol/g tissue, for 20 min | 0.457 ± 0.04 nmol/g tissue, for 20 min | 4.3 ± 0.20 nmol/g tissue, for 20 min | 6.6 ± 0.04 nmol/g tissue, for 20 min | Escape Failures (EFs) ([1]; 1 mg/kg s.c.): * .dwnarw.
5 | C#CCN(C)[C@H](C)Cc1ccccc1 [Selegiline, reference compound] |  |  |  |  | > 10 µM | 2 µM | > 10 µM | > 10 µM |  | > 10 µM |  |  |  |  |  |  | 
